# Results: patent US9796733B2, “Imidazo-pyrazine derivatives useful as soluble guanylate cyclase activators” (Merck Sharp & Dohme Corp., priority 2014, dated 2017)
# pEC50: −log10 of the molar value.
# Legend:
# sGC α1/β1 heterodimer = biological target: T1, sGC α1/β1 heterodimer (Homo sapiens, UniProt Q02108+Q02153); assay: Cell-based sGC functional assay (CASA assay): cGMP generation in CHO-K1/sGC cells, HTRF detection; details: for pEC50: inflection point (IP) of cGMP generation in CHO-K1/sGC cells, 4P fit, activity expressed as percentage of Compound A; for Emax: CHO-K1, percent activation relative to standard Compound A in CHO-K1/sGC cells, read-out: % Act.
# T1 construct: expressed in transfected cells; host or cells: CHO-K1 (clone #7, CHO-K1/sGC)
# T1 sequence (Q02108 1-690): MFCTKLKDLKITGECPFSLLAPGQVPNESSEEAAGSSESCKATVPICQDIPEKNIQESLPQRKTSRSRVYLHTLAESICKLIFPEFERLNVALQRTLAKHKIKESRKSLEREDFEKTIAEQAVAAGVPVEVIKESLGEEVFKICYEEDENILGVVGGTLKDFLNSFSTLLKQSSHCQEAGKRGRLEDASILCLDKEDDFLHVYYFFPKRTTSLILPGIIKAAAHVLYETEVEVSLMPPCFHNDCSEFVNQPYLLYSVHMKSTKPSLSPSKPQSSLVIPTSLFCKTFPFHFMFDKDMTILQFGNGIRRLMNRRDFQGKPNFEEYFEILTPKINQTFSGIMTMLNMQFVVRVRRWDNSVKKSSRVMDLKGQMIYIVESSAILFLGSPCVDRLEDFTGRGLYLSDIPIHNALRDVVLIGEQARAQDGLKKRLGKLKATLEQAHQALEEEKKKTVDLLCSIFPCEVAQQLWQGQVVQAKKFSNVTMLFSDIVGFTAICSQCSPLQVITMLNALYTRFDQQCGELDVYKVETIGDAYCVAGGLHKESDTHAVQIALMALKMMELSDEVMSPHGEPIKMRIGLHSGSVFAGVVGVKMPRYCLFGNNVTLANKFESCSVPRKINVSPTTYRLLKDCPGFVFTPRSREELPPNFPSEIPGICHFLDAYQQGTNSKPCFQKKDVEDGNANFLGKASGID
# T1 sequence (Q02153 1-619): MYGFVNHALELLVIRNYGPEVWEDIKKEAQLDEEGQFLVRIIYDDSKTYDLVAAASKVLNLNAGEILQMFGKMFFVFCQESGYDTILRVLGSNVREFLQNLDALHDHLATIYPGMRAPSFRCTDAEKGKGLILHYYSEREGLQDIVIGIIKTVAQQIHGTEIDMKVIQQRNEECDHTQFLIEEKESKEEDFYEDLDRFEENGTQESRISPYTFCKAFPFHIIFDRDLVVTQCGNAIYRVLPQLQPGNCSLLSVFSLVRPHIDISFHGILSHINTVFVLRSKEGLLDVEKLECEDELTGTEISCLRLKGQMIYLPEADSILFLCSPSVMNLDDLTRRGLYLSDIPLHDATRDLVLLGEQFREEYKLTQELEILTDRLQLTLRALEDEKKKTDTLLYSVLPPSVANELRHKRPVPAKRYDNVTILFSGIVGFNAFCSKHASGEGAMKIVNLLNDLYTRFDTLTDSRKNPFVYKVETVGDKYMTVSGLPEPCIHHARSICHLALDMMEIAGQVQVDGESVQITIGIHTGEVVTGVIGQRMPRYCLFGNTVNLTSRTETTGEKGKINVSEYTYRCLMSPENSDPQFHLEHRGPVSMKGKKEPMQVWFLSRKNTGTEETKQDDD
# Procedure, shortened: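 cGMP was quantified by HTRF after 1 hr, 37° C exposure of thawed CHO-K1 cells expressing sGC α1/β1 to compound, with or without 1 μM DETA-NO. IBMX (0.5 mM) blocked cGMP breakdown, and DMSO was 2.5% final. Percent of standard Compound A's maximal cGMP was fitted (4P) for inflection point.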
# [1] = tested on: Spontaneously hypertensive rats (SHR); assay: Acute efficacy in spontaneously hypertensive rats (SHR): telemetry blood pressure lowering after a single oral dose; type: in vivo, rat
# Procedure, shortened: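 Values are the maximum peak fall in systolic pressure after one oral dose (mpk), computed hourly against baseline from a vehicle dose given the day before. Rats were conscious, male, spontaneously hypertensive, with femoral-aortic telemetry recording 30 s every 10 min, 14 days post-surgery.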
Compound,pEC50 (sGC α1/β1 heterodimer),% Act. (sGC α1/β1 heterodimer; percent activation relative to standard Compound A in CHO-K1/sGC cells) [%],"Maximum peak decrease of systolic blood pressure (SBP) in SHR, Cat. ([1]; P.O. 0.3 mpk)",Emax (sGC α1/β1 heterodimer) [%],"Maximum peak decrease of systolic blood pressure (SBP) in SHR, Cat. ([1]; P.O. 1.0 mpk)","Maximum peak decrease of systolic blood pressure (SBP) in SHR, Cat. ([1]; P.O. 3.0 mpk)","Maximum peak decrease of systolic blood pressure (SBP) in SHR, Cat. ([1]; P.O. 0.1 mpk)"
"CC1(c2ccc(F)cc2)C(=O)Nc2nc(-c3cn4ccnc4c(CCC(F)(F)C(F)(F)F)n3)nc(N)c21 (single isomer, unassigned) [Example 68A, 4-Amino-5-(4-fluorophenyl)-5-methyl-2-(8-(3,3,4,4,4-pentafluorobutyl)imidazo[1,2-a]pyrazin-6-yl)-5H-pyrrolo[2,3-d]pyrimidin-6(7H)-one]",7.43,112,C (Category C=SBP in SHRs>40 mmHg),–,–,–,–
"CC1(C(=O)NC2CC2)C(=O)Nc2nc(-c3cn4ccnc4c(CCC(F)(F)C(F)(F)F)n3)nc(N)c21 (stereo not drawn) [Example 60A, 4-amino-N-cyclopropyl-5-methyl-6-oxo-2-(8-(3,3,4,4,4-pentafluorobutyl)imidazo[1,2-a]pyrazin-6-yl)-6,7-dihydro-5H-pyrrolo[2,3-d]pyrimidine-5-carboxamide]",7.06,–,–,41,A (Category A=SBP in SHRs<20 mmHg),–,–
"CC(C)CCc1nc(-c2nc(N)c3c(n2)NC(=O)C3(C)c2ccc(F)cn2)cn2ccnc12 (stereo not drawn) [Example 11B, 4-amino-5-(5-fluoropyridin-2-yl)-2-(8-isopentylimidazo[1,2-a]pyrazin-6-yl)-5-methyl-5H-pyrrolo[2,3-d]pyrimidin-6(7H)-one]",7.34,–,–,135,B (Category B=SBP in SHRs 20-40 mmHg),–,–
"Nc1nc(-c2cn3ccnc3c(CCCC(F)(F)F)n2)nc2c1C(c1ncc(Cl)cn1)(C1CC1)C(=O)N2 (stereo not drawn) [Example 373A, 4-amino-5-(5-chloropyrimidin-2-yl)-5-cyclopropyl-2-(8-(4,4,4-trifluorobutyl)imidazo[1,2-a]pyrazin-6-yl)-5H-pyrrolo[2,3-d]pyrimidin-6(7H)-one]",7.59,–,A (Category A=SBP in SHRs<20 mmHg),114,–,–,–
"CCCCc1nc(-c2nc(N)c3c(n2)NC(=O)C3(C)c2ccc(Cl)cc2)cn2ccnc12 (stereo not drawn) [Example 10A, 4-amino-2-(8-butylimidazo[1,2-a]pyrazin-6-yl)-5-(4-chlorophenyl)-5-methyl-5H-pyrrolo[2,3-d]pyrimidin-6(7H)-one]",7.25,–,C (Category C=SBP in SHRs>40 mmHg),120,–,–,–
"CCc1nnc(C2(C3CC3)C(=O)Nc3nc(-c4cn5ccnc5c(CCC(F)(F)C(F)(F)F)n4)nc(N)c32)s1 (single isomer, unassigned) [Example 30A, 4-Amino-5-cyclopropyl-5-(5-ethyl-1,3,4-thiadiazol-2-yl)-2-(8-(3,3,4,4,4-pentafluorobutyl)imidazo[1,2-a]pyrazin-6-yl)-5H-pyrrolo[2,3-d]pyrimidin-6(7H)-one]",6.45,–,–,113,–,C (Category C=SBP in SHRs>40 mmHg),–
"CC1(c2ccc(C(F)(F)F)cn2)C(=O)Nc2nc(-c3cn4ccnc4c(CCCC(F)(F)F)n3)nc(N)c21 (stereo not drawn) [Example 213B, 4-amino-5-methyl-2-(8-(4,4,4-trifluorobutyl)imidazo[1,2-a]pyrazin-6-yl)-5-(5-(trifluoromethyl)pyridin-2-yl)-5H-pyrrolo[2,3-d]pyrimidin-6(7H)-one]",7.00,–,B (Category B=SBP in SHRs 20-40 mmHg),89,–,–,–
"Cc1cnc2c(CCC(F)(F)C(F)(F)F)nc(-c3nc(N)c4c(n3)NC(=O)C4(C)c3ccc(F)cc3)cn12 (stereo not drawn) [Example 171A, 4-amino-5-(4-fluorophenyl)-5-methyl-2-(3-methyl-8-(3,3,4,4,4-pentafluorobutyl)imidazo [1,2-a]pyrazin-6-yl)-5H-pyrrolo[2,3-d]pyrimidin-6(7H)-one]",7.10,–,–,126,B (Category B=SBP in SHRs 20-40 mmHg),–,–
"Nc1nc(-c2cn3ccnc3c(CCCC(F)(F)F)n2)nc2c1C(c1ccc(F)c(F)c1)(C1CC1)C(=O)N2 (stereo not drawn) [Example 317A, 4-amino-5-cyclopropyl-5-(3,4-difluorophenyl)-2-(8-(4,4,4-trifluorobutyl)imidazo[1,2-a]pyrazin-6-yl)-5H-pyrrolo[2,3-d]pyrimidin-6(7H)-one]",7.12,–,–,156,–,–,B (Category B=SBP in SHRs 20-40 mmHg)
"CC1(c2ccccc2)C(=O)Nc2nc(-c3cn4ccnc4c(CCC(F)(F)C(F)(F)F)n3)nc(N)c21 (stereo not drawn) [Example 232B, 4-amino-5-methyl-2-(8-(3,3,4,4,4-pentafluorobutyl)imidazo [1,2-a]pyrazin-6-yl)-5-phenyl-5H-pyrrolo[2,3-d]pyrimidin-6(7H)-one]",7.77,–,–,60,C (Category C=SBP in SHRs>40 mmHg),–,–
"Cc1nnc(C2(C)C(=O)Nc3nc(-c4cn5ccnc5c(Cc5ccc(F)cc5)n4)nc(N)c32)o1 (single isomer, unassigned) [Example 29A, 4-Amino-2-(8-(4-fluorobenzyl)imidazo[1,2-a]pyrazin-6-yl)-5-methyl-5-(5-methyl-1,3,4-oxadiazol-2-yl)-5H-pyrrolo[2,3-d]pyrimidin-6(7H)-one]",6.52,–,–,102,–,B (Category B=SBP in SHRs 20-40 mmHg),–
"CC1(c2ccc(F)cc2)C(=O)Nc2nc(-c3cn4cc(C(F)(F)F)nc4c(Cc4ccccc4)n3)nc(N)c21 (stereo not drawn) [Example 154A, 4-amino-2-(8-benzyl-2-(trifluoromethyl)imidazo[1,2-a]pyrazin-6-yl)-5-(4-fluorophenyl)-5-methyl-5H-pyrrolo[2,3-d]pyrimidin-6(7H)-one]",7.07,–,–,120,A (Category A=SBP in SHRs<20 mmHg),–,–
"CCCCc1nc(-c2nc(N)c3c(n2)NC(=O)C3(C)c2ccc(Cl)cn2)cn2cc(C)nc12 (stereo not drawn) [Example 168A, 4-amino-2-(8-butyl-2-methylimidazo[1,2-a]pyrazin-6-yl)-5-(5-chloropyridin-2-yl)-5-methyl-5H-pyrrolo[2,3-d]pyrimidin-6(7H)-one]",6.82,–,–,97,B (Category B=SBP in SHRs 20-40 mmHg),–,–
"CC1(c2ccc(Cl)cc2)C(=O)Nc2nc(-c3cn4ccnc4cn3)nc(N)c21 (stereo not drawn) [Example 144A, 4-amino-5-(4-chlorophenyl)-2-(imidazo[1,2-a]pyrazin-6-yl)-5-methyl-5H-pyrrolo[2,3-d]pyrimidin-6(7H)-one]",6.40,–,–,117,B (Category B=SBP in SHRs 20-40 mmHg),–,–
"CCCCc1nc(-c2nc(N)c3c(n2)NC(=O)C3(c2ccc(F)c(F)c2)C2CC2)cn2ccnc12 (stereo not drawn) [Example 330A, 4-amino-2-(8-butylimidazo[1,2-a]pyrazin-6-yl)-5-cyclopropyl-5-(3,4-difluorophenyl)-5H-pyrrolo[2,3-d]pyrimidin-6(7H)-one]",7.66,–,B (Category B=SBP in SHRs 20-40 mmHg),142,–,–,–
"Nc1nc(-c2cn3ccnc3c(CCCC(F)(F)F)n2)nc2c1C(c1ccc(Cl)cc1F)(C1CC1)C(=O)N2 (stereo not drawn) [Example 339A, 4-amino-5-(4-chloro-2-fluorophenyl)-5-cyclopropyl-2-(8-(4,4,4-trifluorobutyl)imidazo[1,2-a]pyrazin-6-yl)-5H-pyrrolo[2,3-d]pyrimidin-6(7H)-one]",6.91,–,B (Category B=SBP in SHRs 20-40 mmHg),325,–,–,–
